Measured values published in US8829195B2, “Compounds and compositions for inhibiting the activity of ABL1, ABL2 and BCR-ABL1” (Novartis AG, priority 2012, dated 2014).

Experiments:
ABL1 (64-515) [1] = biological target: T1, ABL1 (64-515) (Homo sapiens, UniProt P00519); test: Caliper ABL1 (64-515) microfluidic mobility shift assay; type: biochemical
T1 construct: 3.5 nM ABL (ABL(64-515), produced in-house from E. coli); His6 followed by a PreScission protease cleavage site (N, cleaved yes); made in house; host or cells: E. coli (BL21 (DE3) according to b733)
Protocol: All assays were performed in 384-well microtiter plates. Each assay plate contained 8-point serial dilutions for 40 test compounds, as well as four 8-point serial dilutions of staurosporine as a reference compound, plus 16 high and 16 low controls. Liquid handling and incubation steps were done on a Thermo CatX workstation equipped with Innovadyne Nanodrop Express. Between pipetting steps, tips were cleaned in wash cycles using wash buffer.
The assay plates were prepared by addition of 50 mL per well of compound solution in 90% DMSO. […] Plates with terminated kinase reactions were transferred to the Caliper LC3000 workstations for reading. Phosphorylated and unphosphorylated peptides were separated using the Caliper microfluidic mobility shift technology. Briefly, samples from terminated kinase reactions were applied to the chip. Analytes are transported through the chip by constant buffer flow and the migration of the substrate peptide is monitored by the fluorescence signal of its label. Phosphorylated peptide (product) and unphosphorylated peptide (substrate) are separated in an electric field by their charge/mass ratio. Kinase activities were calculated from the amounts of formed phospho-peptide. IC50 values were determined from percent inhibition values at different compound concentrations by non-linear regression analysis.
Preparation of compound dilutions: Test compounds were dissolved in DMSO (10 mM) and transferred into 1.4 mL flat bottom or V-shaped Matrix tubes carrying a unique 2D matrix. The stock solutions were stored at +2° C. if not used immediately. For the test procedure the vials were defrosted and identified by a scanner whereby a working sheet was generated that guided the subsequent working steps.
Compound dilutions were made in 96-well plates. This format enabled the assay of maximally 40 individual test compounds at 8 concentrations (single points) including 4 reference compounds. The dilution protocol included the production of “pre-dilution plates”, “master plates” and “assay plates”.
Pre-dilution plates: Polypropylene 96-well plates were used as pre-dilution plates. […] All dilution steps were done on a HamiltonSTAR robot.
These plates were used directly for the assay which was performed in a total volume of 9.05 μL.

[2] = biological target: T2, Ba/F3-BCR-ABL1-T315I cells (Homo sapiens, UniProt P00519, T315I, cells depend on it); test: Ba/F3-BCR-ABL1-T315I cell proliferation assay; type: cell-based, murine; settings: 48 hours; read-out: Ba/F3-BCR-ABL1-T315I IC50
T2 construct: A similar approach was used to generate Ba/F3 cells that depend on a BCR-ABL1 variant in which threonine 315 is replaced with isoleucine; fused on or other part: P11274 (Breakpoint cluster region protein)

Ba/F3-BCR-ABL1-WT cells = biological target: T3, Ba/F3-BCR-ABL1-WT cells (Homo sapiens, UniProt P00519); test: Ba/F3-BCR-ABL1-WT cell proliferation assay; type: cell-based, murine; settings: 48 hours; read-out: Ba/F3-BCR-ABL1-WT IC50
T3 construct: fused on or other part: P11274 (Breakpoint cluster region protein)
Protocol: To generate Ba/F3 cells that depend on BCR-ABL1 expression for growth and survival, Ba/F3 cells were engineered to express BCR-ABL1 using retroviral transduction with a MSCV based retroviral vector containing a p210 BCR-ABLlexpression cassette. […] These cells are referred to as Ba/F3-BCR-ABL-WT.
Ba/F3-WT cells were maintained in RPMI1640 media with L-glutamine, HEPES (Lonza), 10% FBS (Gibco) and 5 ng/ml IL-3 (Calbiochem). Ba/F3-BCR-ABL1-WT cells and Ba/F3-BCR-ABL1-T315I cells were manitained in RPMI1640 media with L-glutamine, HEPES (Lonza) and 10% FBS (Gibco).
For each cell line, the cell density was adjusted to 50 000 cells/mL and 50 μL (2500 cells) added per well of a 384-well assay plate.
Test compounds were resuspended in DMSO at a concentration of 10 mM. A serial three-fold dilution of each compound with DMSO was performed in 384-well plates using the Janus Liquid Dispenser (PerkinElmer). Compound was delivered to the assay plates containing 2500 cells in a 50 μL volume via Acoustic delivery from an ATS-100 (EDC).
Cells were incubated at 37° C. in a humidified environment with 5% carbon dioxide for 48 hours. Britelite plus solution (Perkin Elmer) was prepared according to the manufacturer's instructions and 25 μL added to each well of the assay plate. […] The degree of luminescence correlates with the number of cells in each well. The effect of each inhibitor concentration can therefore be calculated and IC50 values generated.

ABL1 (64-515) [3] = biological target: T1, ABL1 (64-515); test: Radio ABL1 (64-515) radiometric filter-binding assay; type: biochemical
Protocol: Expression and purification of protein kinase—Expression and purification of human ABL was performed using standard expression purification procedures. […] The His-ABL was expressed in E. coli BL21 (DE3) and the ABL proteins were isolated by Ni-affinity on a Ni-NTA column (Qiagen). The His-tag was removed by PreScission protease (GE Healthcare) and the non-phosphoprylated ABL further purified on a Mono Q HR 10/10 (GE Healthcare, mono-phosphorylated ABL is about 10-20% of total ABL protein) and HiLoad 16/60 Superdex 200 size exclusion column (GE Healthcare).
For determination of ABL kinase activity, the radiometric filter-binding assay was used. […] 10 μL of enzyme (ranging between 5 nM to 20 nM) was added to initiate the reaction. Pre-incubation of enzyme with compounds (when stated) was performed by exposing the enzyme to compounds prior to addition of the substrate mixture (ATP and/or peptide substrate). […] Filter-plates were washed 3× with 0.5% H3PO4, followed by addition of 30 μL scintillation cocktail (Microscint, Perkin Elmer) per well and then analysed in a TopCount NXT scintillation counter (Perkin Elmer). Results were expressed as IC50 values.

[4] = comparison of ortho substitution on R3/R4 ring

SMILES | IC50 (ABL1 (64-515) [1]; Table of Biochemical Data) [nM] | GI50 [2] [nM] | GI50 (Ba/F3-BCR-ABL1-WT cells) [nM] | IC50 (ABL1 (64-515) [3]) [nM] | IC50 (ABL1 (64-515) [1]; [4]) [nM]
O=C(Nc1ccc(OC(F)(F)F)c(F)c1)c1cnc(N2CC[C@H](CO)C2)c(-c2ccn[nH]2)c1 [Example 14, (S)—N-(3-Fluoro-4-(trifluoromethoxy)phenyl)-6-(3-(hydroxymethyl)pyrrolidin-1-yl)-5-(1H-pyrazol-5-yl)nicotinamide] | 0.9 | 218 | 18.9 | 10 | 
O=C(Nc1ccc(OC(F)(F)F)cc1)c1cnc(N2CC[C@@H](O)C2)c(-c2[nH]ncc2F)c1 [Example 5, (R)-5-(4-Fluoro-1H-pyrazol-5-yl)-6-(3-hydroxypyrrolidin-1-yl)-N-(4-(trifluoromethoxy)phenyl)nicotinamide] | 1.2 | 134 | 8.1 | 7 | 
Cc1cc(-c2cc(C(=O)Nc3ccc(OC(F)(F)Cl)cc3)cnc2N2CC[C@@H](O)C2)[nH]n1 [Example 23, (R)—N-(4-(Chlorodifluoromethoxy)phenyl)-6-(3-hydroxypyrrolidin-1-yl)-5-(3-methyl-1H-pyrazol-5-yl)nicotinamide] | 0.5 | 42 | 1.7 | 7 | 
O=C(Nc1ccc(OC(F)(F)F)c(F)c1)c1cnc(N2CC[C@@H](O)C2)c(-c2ccn[nH]2)c1 [Example 13, (R)—N-(3-Fluoro-4-(trifluoromethoxy)phenyl)-6-(3-hydroxypyrrolidin-1-yl)-5-(1H-pyrazol-5-yl)nicotinamide] | 0.6 | 150 | 9.6 | 10 | 
CC(F)(F)Oc1ccc(NC(=O)c2cnc(N3CC[C@@H](O)C3)c(-c3ccn[nH]3)c2)cc1 [Example 30, (R)—N-(4-(1,1-Difluoroethoxy)phenyl)-6-(3-hydroxypyrrolidin-1-yl)-5-(1H-pyrazol-5-yl)nicotinamide] | 4.3 | 715 | 31.8 | 0.4 | 
O=C(Nc1ccc(OC(F)(F)Cl)cc1)c1ccc(N2CC[C@@H](O)C2)c(-c2[nH]ncc2F)c1 [Example 24, (R)—N-(4-(Chlorodifluoromethoxy)phenyl)-3-(4-fluoro-1H-pyrazol-5-yl)-4-(3-hydroxypyrrolidin-1-yl)benzamide] | 0.4 | 22 | 1.1 | 5 | 
O=C(Nc1ccc(OC(F)(F)F)cc1)c1cnc(N2CC[C@H](CO)C2)c(-c2ccn[nH]2)c1 [Example 7, (S)-6-(3-(Hydroxymethyl)pyrrolidin-1-yl)-5-(1H-pyrazol-5-yl)-N-(4-(trifluoromethoxy)phenyl)nicotinamide] | 0.4 | 132 | 6 | < 3 | 
Cc1cn[nH]c1-c1cc(C(=O)Nc2ccc(OC(F)(F)Cl)cc2)cnc1N1CC[C@@H](O)C1 [Example 33, (R)—N-(4-(Chlorodifluoromethoxy)phenyl)-6-(3-hydroxypyrrolidin-1-yl)-5-(4-methyl-1H-pyrazol-5-yl)nicotinamide] | 0.6 | 32 | 1.5 | 6 | 
Cc1cn[nH]c1-c1cc(C(=O)Nc2ccc(OC(F)(F)F)cc2)cnc1N1CC[C@@H](O)C1 [Example 4, (R)-6-(3-Hydroxypyrrolidin-1-yl)-5-(4-methyl-1H-pyrazol-5-yl)-N-(4-(trifluoromethoxy)phenyl)nicotinamide] | 1.3 | 327 | 11.7 | 3.4 | 
O=C(Nc1ccc(S(F)(F)(F)(F)F)cc1)c1cnc(N2CC[C@@H](O)C2)c(-c2ccn[nH]2)c1 [Example 17, (R)-6-(3-Hydroxypyrrolidin-1-yl)-N-(4-(pentafluorosulfanyl)phenyl)-5-(1H-pyrazol-5-yl)nicotinamide] | 2.4 | 199 | 15.5 | 3 | 
O=C(Nc1ccc(SC(F)(F)F)c(F)c1)c1cnc(N2CC[C@@H](O)C2)c(-c2ccn[nH]2)c1 [Example 15, (R)—N-(3-Fluoro-4-((trifluoromethyl)thio)phenyl)-6-(3-hydroxypyrrolidin-1-yl)-5-(1H-pyrazol-5-yl)nicotinamide] | 0.3 | 31 | 1.9 | 11 | 
Cc1cc(-c2cc(C(=O)Nc3ccc(OC(F)(F)F)cc3)cnc2N2CC[C@@H](O)C2)[nH]n1 [Example 3, (R)-6-(3-Hydroxypyrrolidin-1-yl)-5-(3-methyl-1H-pyrazol-5-yl)-N-(4-(trifluoromethoxy)phenyl)nicotinamide] | 0.7 | 133 | 7.5 | 4 | 
CC(C)[C@H](N)C(=O)O[C@@H]1CCN(c2ncc(C(=O)Nc3ccc(OC(F)(F)Cl)cc3)cc2-c2ccn[nH]2)C1 [Example 38] | 2.5 |  |  | 4 | 
O=C(Nc1ccc(OC(F)(F)Cl)cc1)c1ccc(N2CC[C@@H](O)C2)c(-c2ccn[nH]2)c1 [Example 20, (R)—N-(4-(Chlorodifluoromethoxy)phenyl)-4-(3-hydroxypyrrolidin-1-yl)-3-(1H-pyrazol-5-yl)benzamide] | 0.4 |  |  | 1.3 | 
O=C(Nc1ccc(OC(F)(F)Cl)cc1)c1cnc(N2CC[C@@H](O)C2)c(-c2cnn(CCO)c2)c1 [Example 29, (R)—N-(4-(Chlorodifluoromethoxy)phenyl)-5-(1-(2-hydroxyethyl)-1H-pyrazol-4-yl)-6-(3-hydroxypyrrolidin-1-yl)nicotinamide] | 0.9 |  |  | 9 | 
O=C(Nc1ccc(SC(F)(F)F)cc1)c1cnc(N2CC[C@@H](O)C2)c(-c2ccn[nH]2)c1 [Example 11, (R)-6-(3-Hydroxypyrrolidin-1-yl)-5-(1H-pyrazol-5-yl)-N-(4-((trifluoromethyl)thio)phenyl)nicotinamide] | < 0.13 | 38 | 1 | < 3 | 
O=C(Nc1ccc(SC(F)(F)F)cc1)c1cnc(N2CC[C@H](CO)C2)c(-c2ccn[nH]2)c1 [Example 12, (S)-6-(3-(Hydroxymethyl)pyrrolidin-1-yl)-5-(1H-pyrazol-5-yl)-N-(4-((trifluoromethyl)thio)phenyl)nicotinamide] | 0.5 | 38 | 1.9 | 6 | 
Cn1cc(-c2cc(C(=O)Nc3ccc(OC(F)(F)F)cc3)cnc2N2CC[C@@H](O)C2)cn1 [Example 6, (R)-6-(3-Hydroxypyrrolidin-1-yl)-5-(1-methyl-1H-pyrazol-4-yl)-N-(4-(trifluoromethoxy)phenyl)nicotinamide] | 3.2 |  |  | 3 | 
O=C(Nc1ccc(OC(F)(F)Cl)cc1)c1cnc(N2CCC(C(=O)O)C2)c(-c2ccn[nH]2)c1 (stereo not drawn) [Example 37] | 0.5 |  |  |  | 
O=C(Nc1ccc(OC(F)(F)Cl)cc1)c1cnc(N2CC[C@@H](OP(=O)(O)O)C2)c(-c2ccn[nH]2)c1 [Example 39, (R)-1-(5-(4-(Chlorodifluoromethoxy)phenyl)carbamoyl)-3-(1H-pyrazol-5-yl)pyridin-2-yl)pyrrolidin-3-yl dihydrogen phosphate] | 1.3 |  |  | 3 | 
Cc1cc(-c2cc(C(=O)Nc3ccc(OC(F)(F)Cl)cc3)ccc2N2CC[C@@H](O)C2)[nH]n1 [Example 22, (R)—N-(4-(Chlorodifluoromethoxy)phenyl)-4-(3-hydroxypyrrolidin-1-yl)-3-(3-methyl-1H-pyrazol-5-yl)benzamide] | < 0.64 |  |  | 6 | 
COC(=O)C1CCN(c2ncc(C(=O)Nc3ccc(OC(F)(F)Cl)cc3)cc2-c2ccn[nH]2)C1 (stereo not drawn) [Example 36, Methyl 1-(5-((4-(chlorodifluoromethoxy)phenyl)carbamoyl)-3-(1H-pyrazol-5-yl)pyridin-2-yl)pyrrolidine-3-carboxylate] | 2.1 | 71 | 1.9 |  | 
O=C(Nc1ccc(SC(F)(F)F)nc1)c1cnc(N2CC[C@@H](O)C2)c(-c2ccn[nH]2)c1 [Example 32, (R)-6-(3-Hydroxypyrrolidin-1-yl)-5-(1H-pyrazol-5-yl)-N-(6-((trifluoromethyl)thio)pyridin-3-yl)nicotinamide] | 13 |  |  | 3 | 
Cc1cc(OC(F)(F)F)ccc1NC(=O)c1cnc(N2CC[C@@H](O)C2)c(-c2ccn[nH]2)c1 |  |  |  |  | 1800
Cn1nccc1-c1cc(C(=O)Nc2ccc(OC(F)(F)Cl)cc2)cnc1N1CC[C@@H](O)C1 [Example 27, (R)—N-(4-(Chlorodifluoromethoxy)phenyl)-6-(3-hydroxypyrrolidin-1-yl)-5-(1-methyl-1H-pyrazol-5-yl)nicotinamide] | 1.1 |  |  | 2 | 
O=C(Nc1ccc(OC(F)(F)F)cc1Cl)c1cnc(N2CC[C@@H](O)C2)c(-c2ccn[nH]2)c1 |  |  |  |  | 1600
O=C(Nc1ccc(OC(F)(F)F)cc1)c1cnc(N2CC[C@@H](OP(=O)(O)O)C2)c(-c2ccn[nH]2)c1 [Example 40, (R)-1-(3-(1H-Pyrazol-5-yl)-5-(4-(trifluoromethoxy)phenyl)carbamoyl)pyridin-2-yl)pyrrolidin-3-yl dihydrogen phosphate] | 2.1 |  |  |  | 
O=C(Nc1ccc(OC(F)(F)F)cc1)c1ccc(N2CC[C@@H](O)C2)c(-c2ccn[nH]2)c1 [Example 1, (R)-4-(3-Hydroxypyrrolidin-1-yl)-3-(1H-pyrazol-5-yl)-N-(4-(trifluoromethoxy)phenyl)benzamide] | 2.2 |  |  | < 3 | 
